Earlier results as cited in US20030064108A1, “TASTE MASKED PHARMACEUTICAL COMPOSITIONS” (priority 1996, published 2003).

Conditions: 1 g every 6 hours, repeated administration

mean maximum concentration: about 12 mg/L
mean trough plasma concentration (immediately pre-dose): 3 mg/L
SMILES: CC(=O)Nc1ccc(O)cc1 [paracetamol]
